# Reference: patent publication US11351157B2, “Treatment of immunological disease using berberine nanoparticles” (Icahn School of Medicine at Mount Sinai, priority 2016, dated 2022)
# Like-named read-outs stand apart in the source and are kept apart here.
# B1: quilizumab: mIgE (membrane-bound IgE) targeting antibody studied in clinical trials (antibody, chains of the INN, looked up, V domains shown)
# VH: EVQLVESGGGLVQPGGSLRLSCAASGFTFSDYGIAWVRQAPGKGLEWVAFISDLAYTIYYADTVTGRFTISRDNSKNTLYLQMNSLRAEDTAVYYCARDNWDAMDYWGQGTLVTVSS
# VL: DIQMTQSPSSLSASVGDRVTITCRSSQSLVHNNANTYLHWYQQKPGKAPKLLIYKVSNRFSGVPSRFSGSGSGTDFTLTISSLQPEDFATYYCSQNTLVPWTFGQGTKVEIK
# Columns and labels:
# [1] = in vivo; cited from earlier work
# P-glycoprotein = settings: mediated by P-glycoprotein; cited from earlier work
# [2] = test system: peripheral blood mononuclear cells (PBMCs); settings: cited from earlier work; for IgE production by PBMCs: PBMCs from patients with food allergy
# human B cells = settings: cited from earlier work; for IgE production by human B cells: human B cells / U266 cells
# peanut-specific IgE = assay: Peanut-specific IgE in serum of peanut-sensitized mice (ELISA); assay type: in vivo, C3H/HeJ mice; settings: two oral courses, vs Sham
# Text: Six-week-old female C3H/HeJ mice purchased from the Jackson Laboratory (Bar Harbor, Me.) were maintained in pathogen-free facilities at the Mount Sinai vivarium on peanut-free chow according to standard guidelines for the care and use of animals. Institute of Laboratory Animal Resources Commission of Life Sciences NRC. Guide for the Care and Use of Laboratory Animals: National Academic Press, 1996. […] Some mice were sensitized to egg white (EW) using a similar protocol. Subsequently, daily oral treatment with BBR-nanoparticles was administered in 4-week and 2-week phases with an interval of 2 weeks at times indicated. Mice were periodically challenged with systemic and oral challenges at approximately 6 week intervals, as indicated. In some experiments mice were given intraperitoneal injections of 100 μg of anti-CD8 or anti-IFNγ antibodies, one day prior and then twice weekly during treatment period. Microtitre plates were coated with defatted protein extracts of peanut or egg white (sample wells) and rat anti-mouse IgE (reference wells) and held overnight at 4° C. After washing three times, plates were blocked for 2 hours at room temperature with 2% BSA-PBS. After three washes plates were incubated with diluted serum samples overnight at 4° C. […] Total IgA, peanut specific IgG1 and IgG2a levels were measured as described in a previous publication. […]
# [3] = target: T1, mIgE (membrane-bound IgE) (Homo sapiens, UniProt P01854); settings: clinical trials; cited from earlier work
# T1 construct: host or cells: endogenous mIgE on IgE-lineage B cells of human trial subjects
# T1 sequence (P01854 whole entry): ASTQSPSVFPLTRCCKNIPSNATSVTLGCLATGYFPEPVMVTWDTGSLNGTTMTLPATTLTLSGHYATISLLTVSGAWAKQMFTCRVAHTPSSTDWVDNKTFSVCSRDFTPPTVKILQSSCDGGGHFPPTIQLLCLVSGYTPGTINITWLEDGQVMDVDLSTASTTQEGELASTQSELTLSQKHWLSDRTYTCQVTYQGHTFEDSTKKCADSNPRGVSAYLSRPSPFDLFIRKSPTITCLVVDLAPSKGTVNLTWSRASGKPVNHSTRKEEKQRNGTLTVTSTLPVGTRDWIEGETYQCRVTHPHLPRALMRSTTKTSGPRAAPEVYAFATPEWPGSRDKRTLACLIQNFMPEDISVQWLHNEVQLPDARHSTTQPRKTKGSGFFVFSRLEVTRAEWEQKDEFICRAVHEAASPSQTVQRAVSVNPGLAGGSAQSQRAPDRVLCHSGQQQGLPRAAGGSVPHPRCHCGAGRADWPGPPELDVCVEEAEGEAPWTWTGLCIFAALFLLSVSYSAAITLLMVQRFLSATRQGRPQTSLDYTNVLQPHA
# T1 sequence (P11912 33-226 partner): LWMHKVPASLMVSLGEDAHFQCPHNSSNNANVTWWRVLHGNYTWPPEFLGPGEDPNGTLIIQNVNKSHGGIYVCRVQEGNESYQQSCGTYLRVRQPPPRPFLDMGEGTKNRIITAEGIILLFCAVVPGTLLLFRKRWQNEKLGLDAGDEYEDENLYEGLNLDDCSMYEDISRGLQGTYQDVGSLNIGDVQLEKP
# T1 sequence (P40259 29-229 partner): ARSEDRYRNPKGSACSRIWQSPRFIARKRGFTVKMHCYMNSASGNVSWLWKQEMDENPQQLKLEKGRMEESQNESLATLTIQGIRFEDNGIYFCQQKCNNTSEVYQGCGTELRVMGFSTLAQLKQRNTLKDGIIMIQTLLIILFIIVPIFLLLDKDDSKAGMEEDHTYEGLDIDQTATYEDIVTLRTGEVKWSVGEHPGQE
Molecule,Berberine taken up by the gastrointestinal tract [1],Bioavailability [1],Rate of efflux from intestinal epithelial cells (P-glycoprotein),IgE production by PBMCs [2],IgE production by PBMCs ([2]; listed as Berberine),Cytotoxicity of inhibition in PBMCs [2],IC50 of IgE production (human B cells) [µg/mL],IgE production by human B cells (human B cells),IgE production by human B cells (human B cells; listed as Berberine),Peanut-specific IgE (peanut-specific IgE),Clinical benefit in early human studies [3],IgE reduction in early human studies [3]
"COc1ccc2cc3[n+](cc2c1OC)CCc1cc2c(cc1-3)OCO2 [berberine, Berberine]",less than 5%,less than 1%,up to 95%,significant reduction,significantly reduced,non-cytotoxic,0.1962,significant reduction,significantly reduced,not,–,–
B1,–,–,–,–,–,–,–,–,–,–,without any significant clinical benefit,only moderate IgE reduction
